The values below come from patent US20240132431A1, “METHOD FOR ALKYLATING ACIDIC FUNCTIONAL GROUP” (Chugai Seiyaku Kabushiki Kaisha, priority 2021, published 2024).

The target in this assay is T1, Bcl-2 protein (Recombinant Human Bcl-2 Protein) (Homo sapiens, UniProt P10415).
T1 construct: purchased Novus NBP2-34889
The experiment in a line: Binding evaluation of mixture library compounds to Bcl-2 using AS-MS (affinity selection mass spectrometry). As to conditions: for ASMS ratio (%) n = 1: replicate n = 1; for ASMS ratio (%) n = 1 / ASMS ratio (%) n = 2: ASMS Ratio(%)=(A−C)/B×100; for ASMS ratio (%) n = 2: replicate n = 2. The gist of the method:
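Readout is ASMS Ratio (%), (A−C)/B×100, from reversed-phase LC/MS of SEC-passed extracts, with protein-free unfiltered standard (B) and protein-free SEC blank (C). Recombinant human Bcl-2 at 20 μM final met ~1200 pooled compounds at […] each for 1 h, 23° C., dark, in Tris-HCl pH 7.4 buffer.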

[1] abbreviates: AS-MS on the mixture of 1200 library compounds.
Where [2] appears, read: AS-MS, mixture of 1200 compounds, Bcl-2.

T1 sequence (P10415 whole entry): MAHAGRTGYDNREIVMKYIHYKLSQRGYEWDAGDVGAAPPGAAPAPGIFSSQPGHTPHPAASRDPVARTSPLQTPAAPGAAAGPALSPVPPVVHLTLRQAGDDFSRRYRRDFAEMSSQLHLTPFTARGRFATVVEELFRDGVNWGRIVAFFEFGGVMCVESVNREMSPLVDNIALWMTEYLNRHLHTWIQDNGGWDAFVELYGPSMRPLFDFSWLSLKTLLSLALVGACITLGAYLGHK

Take `CCOc1cccc(-c2cc(C(=O)N3CCN(c4ccc(C(=O)NS(C)(=O)=O)nn4)CC3)cc(C(C)(C)C)c2)c1` [B2I015-01, 6-[4-[3-tert-Butyl-5-(3-ethoxyphenyl)benzoyl]piperazin-1-yl]-N-methylsulfonylpyridazine-3-carboxamide]: under “AS-MS, mixture library, Bcl-2”, the “ASMS ratio (%) n = 1” value is recorded as 0.0% and the “ASMS ratio (%) n = 2” value came out at 0.0%.

As for `CCOc1cccc(-c2cc(CN3CCN(c4ccc(C(=O)N(CC)CC)cc4)CC3)cc(OC(C)C)c2)c1` [B4J057-01, 4-[4-[[3-(3-Ethoxyphenyl)-5-propan-2-yloxyphenyl]methyl]piperazin-1-yl]-N,N-diethylbenzamide], under setting [1], the “ASMS ratio (%) n = 1” value was found to be 5.3% and the “ASMS ratio (%) n = 2” value is −0.1%.

`CCOc1cccc(-c2ccc(C(C)N3CCN(c4ccc(C(=O)NCC(F)(F)F)cc4)CC3)c(F)c2)c1` (stereo not shown) [B1K099-01, 4-[4-[1-[4-(3-Ethoxyphenyl)-2-fluorophenyl]ethyl]piperazin-1-yl]-N-(2,2,2-trifluoroethyl)benzamide]: under setting [2], the “ASMS ratio (%) n = 1” value was 0.0% and the “ASMS ratio (%) n = 2” value was found to be 0.0%.

Regarding `CCOc1cncc(-c2ccc(C(C)N3CCN(c4ccc(C(=O)N(C)CC56CC7CC(CC(C7)C5)C6)cc4)CC3)cc2)c1` (stereo not shown) [B3A098-01, N-(1-Adamantylmethyl)-4-[4-[1-[4-(5-ethoxypyridin-3-yl)phenyl]ethyl]piperazin-1-yl]-N-methylbenzamide], under setting [1], the “ASMS ratio (%) n = 1” value amounted to 0.6% and the “ASMS ratio (%) n = 2” value was determined as 3.0%.

For the compound `CCOc1cccc(-c2cnn(-c3cc(C(=O)N4CCN(c5ccc(C(=O)NCC(F)(F)F)cc5)CC4)cc(C(F)(F)F)c3)c2)c1` [B1K043-01, 4-[4-[3-[4-(3-Ethoxyphenyl)pyrazol-1-yl]-5-(trifluoromethyl)benzoyl]piperazin-1-yl]-N-(2,2,2-trifluoroethyl)benzamide], under setting [2], the “ASMS ratio (%) n = 1” value is recorded as 3.8% and the “ASMS ratio (%) n = 2” value was found to be 1.9%.

For `CCOc1cccc(C#Cc2ccccc2C(=O)N2CCN(c3ccc(C(=O)Nc4ccc(OC)cc4)cc3)CC2)c1` [B1O029-01, 4-[4-[2-[2-(3-Ethoxyphenyl)ethynyl]benzoyl]piperazin-1-yl]-N-(4-methoxyphenyl)benzamide], under setting [1], the “ASMS ratio (%) n = 1” value was determined as 0.0% and the “ASMS ratio (%) n = 2” value was determined as 0.0%.

Consider `CCOc1cccc(C#Cc2cc(C(=O)N3CCN(c4ccc(C(=O)NS(=O)(=O)C(C)(C)C)cc4)CC3)cc(C(F)(F)F)c2)c1` [B2L041-01, N-tert-Butylsulfonyl-4-[4-[3-[2-(3-ethoxyphenyl)ethynyl]-5-(trifluoromethyl)benzoyl]piperazin-1-yl]benzamide], for which the “ASMS ratio (%)” value (n = 1) is recorded as 0.0%.

With `CCOc1cncc(C#Cc2cncc(C(=O)N3CCN(c4ccc(C(=O)NS(=O)(=O)CCC(F)(F)F)cc4)CC3)c2)c1` [B2N032-01, 4-[4-[5-[2-(5-Ethoxypyridin-3-yl)ethynyl]pyridine-3-carbonyl]piperazin-1-yl]-N-(3,3,3-trifluoropropylsulfonyl)benzamide], the “ASMS ratio (%)” value (n = 1) is given as −0.4% and the “ASMS ratio (%)” value (n = 2) is −1.0%.

As to `CCOc1cncc(-c2cnn(-c3cc(C(=O)N4CCN(c5ccc(C(=O)NS(=O)(=O)c6ccc(NCCSc7ccccc7)c([N+](=O)[O-])c6)cc5)CC4)cc(C(F)(F)F)c3)c2)c1` [B2Q044-01, 4-[4-[3-[4-(5-Ethoxypyridin-3-yl)pyrazol-1-yl]-5-(trifluoromethyl)benzoyl]piperazin-1-yl]-N-[3-nitro-4-(2-phenylsulfanylethylamino)phenyl]sulfonylbenzamide], where the note is “AS-MS, mixture library, Bcl-2”, the “ASMS ratio (%) n = 1” value worked out at 11.0% and the “ASMS ratio (%) n = 2” value is −1.3%.

Regarding `CCOc1cncc(-c2csc(C(=O)N3CCN(c4ccc(C(=O)Nc5ccc(OC)cc5)cc4)CC3)c2)c1` [B1O024-01, 4-[4-[4-(5-Ethoxypyridin-3-yl)thiophene-2-carbonyl]piperazin-1-yl]-N-(4-methoxyphenyl)benzamide], under setting [1], the “ASMS ratio (%) n = 1” value is recorded as 3.6% and the “ASMS ratio (%) n = 2” value is recorded as 2.3%.

As for “6-[4-[[4-(5-Ethoxypyridin-3-yl)-3-fluorophenyl]methyl]piperazin-1-yl]-N-propylpyridazine-3-carboxamide [B1M086-01]”, under setting [1], the “ASMS ratio (%) n = 1” value was determined as 0.0% and the “ASMS ratio (%) n = 2” value came out at 0.0%.

On to `CCOc1cccc(-c2ccc(CN3CCN(c4ccc(C(=O)NS(=O)(=O)c5ccc(NCCSc6ccccc6)c([N+](=O)[O-])c5)nn4)CC3)cc2F)c1` [B2Q077-01, 6-[4-[[4-(3-Ethoxyphenyl)-3-fluorophenyl]methyl]piperazin-1-yl]-N-[3-nitro-4-(2-phenylsulfanylethylamino)phenyl]sulfonylpyridazine-3-carboxamide], for which, under “AS-MS, mixture library, Bcl-2”, the “ASMS ratio (%) n = 1” value is 14.7% and the “ASMS ratio (%) n = 2” value was found to be 17.2%.

For `CCOc1cncc(-c2ccc(CN3CCN(c4ccc(C(=O)N(C)CC56CC7CC(CC(C7)C5)C6)cc4)CC3)cc2C)c1` [B3A048-01, N-(1-Adamantylmethyl)-4-[4-[[4-(5-ethoxypyridin-3-yl)-3-methylphenyl]methyl]piperazin-1-yl]-N-methylbenzamide], under setting [1], the “ASMS ratio (%) n = 1” value stood at 7.3% and the “ASMS ratio (%) n = 2” value is on record as −8.8%.

For the compound `CCOc1cccc(-c2ccc(CN3CCN(c4ccc(C(=O)NS(=O)(=O)CC56CC7CC(CC(C7)C5)C6)nn4)CC3)cc2C)c1` [B2A073-01, N-(1-Adamantylmethylsulfonyl)-6-[4-[[4-(3-ethoxyphenyl)-3-methylphenyl]methyl]piperazin-1-yl]pyridazine-3-carboxamide], under “AS-MS, mixture library, Bcl-2”, the “ASMS ratio (%) n = 1” value worked out at 16.2% and the “ASMS ratio (%) n = 2” value is recorded as 13.5%.

For “6-[4-[2-[2-(5-Ethoxypyridin-3-yl)ethynyl]benzoyl]piperazin-1-yl]-N-propylpyridazine-3-carboxamide [B1M096-01]”, under setting [1], the “ASMS ratio (%) n = 2” value came out at 0.0%.

Regarding `CCOc1cncc(-c2cc(CN3CCN(c4ccc(C(=O)N(C)CC56CC7CC(CC(C7)C5)C6)cc4)CC3)cc(C(F)(F)F)c2)c1` [B3A062-01, N-(1-Adamantylmethyl)-4-[4-[[3-(5-ethoxypyridin-3-yl)-5-(trifluoromethyl)phenyl]methyl]piperazin-1-yl]-N-methylbenzamide], under setting [1], the “ASMS ratio (%) n = 1” value came out at 2.2% and the “ASMS ratio (%) n = 2” value is listed as 2.8%.

As to `CCOc1cccc(C#Cc2cc(C(=O)N3CCN(c4ccc(C(=O)N(CC)CC)nn4)CC3)cc(C(F)(F)F)c2)c1` [B4J019-01, 6-[4-[3-[2-(3-Ethoxyphenyl)ethynyl]-5-(trifluoromethyl)benzoyl]piperazin-1-yl]-N,N-diethylpyridazine-3-carboxamide], under setting [1], the “ASMS ratio (%) n = 1” value is on record as −0.5% and the “ASMS ratio (%) n = 2” value is −2.1%.

Take `CCOc1cncc(C#Cc2cc(C(=O)N3CCN(c4ccc(C(=O)NS(=O)(=O)C(C)(C)C)cc4)CC3)cc(C(F)(F)F)c2)c1` [B2L042-01, N-tert-Butylsulfonyl-4-[4-[3-[2-(5-ethoxypyridin-3-yl)ethynyl]-5-(trifluoromethyl)benzoyl]piperazin-1-yl]benzamide]: the “ASMS ratio (%)” value was determined as 0.0% (n = 1) and 0.0% (n = 2).

`CCOc1cncc(-c2ccc(CN3CCN(c4ccc(C(=O)Nc5ccc(OC)cc5)cc4)CC3)cc2C)c1` [B1O048-01, 4-[4-[[4-(5-Ethoxypyridin-3-yl)-3-methylphenyl]methyl]piperazin-1-yl]-N-(4-methoxyphenyl)benzamide]: under setting [1], the “ASMS ratio (%) n = 1” value was −0.3% and the “ASMS ratio (%) n = 2” value is given as −1.6%.

Consider `CCOc1cccc(-c2ccccc2CCC(=O)N2CCN(c3ccc(C(=O)NS(=O)(=O)CC45CC6CC(CC(C6)C4)C5)nn3)CC2)c1` [B2A011-01, N-(1-Adamantylmethylsulfonyl)-6-[4-[3-[2-(3-ethoxyphenyl)phenyl]propanoyl]piperazin-1-yl]pyridazine-3-carboxamide], for which, for the setting “AS-MS, mixture library, Bcl-2”, the “ASMS ratio (%) n = 1” value was determined as 9.0% and the “ASMS ratio (%) n = 2” value is recorded as 0.3%.

On to `CCOc1cccc(-c2cc(C(=O)N3CCN(c4ccc(C(=O)NS(=O)(=O)c5ccc(NCCSc6ccccc6)c([N+](=O)[O-])c5)cc4)CC3)cc(C(C)(C)C)c2)c1` [B2Q037-01, 4-[4-[3-tert-Butyl-5-(3-ethoxyphenyl)benzoyl]piperazin-1-yl]-N-[3-nitro-4-(2-phenylsulfanylethylamino)phenyl]sulfonylbenzamide], for which, for the setting “AS-MS, mixture library, Bcl-2”, the “ASMS ratio (%) n = 1” value was found to be 10.9% and the “ASMS ratio (%) n = 2” value is −1.5%.

Take `CCOc1cccc(C#Cc2ccccc2CN2CCN(c3ccc(C(=O)NS(=O)(=O)C(C)(C)C)cc3)CC2)c1` [B2L069-01, N-tert-Butylsulfonyl-4-[4-[[2-[2-(3-ethoxyphenyl)ethynyl]phenyl]methyl]piperazin-1-yl]benzamide]: the “ASMS ratio (%)” value reads like this: (n = 1) 0.0%; (n = 2) 0.0%.

`CCOc1cccc(C#Cc2ccccc2CN2CCN(c3ccc(C(=O)N(C)CC45CC6CC(CC(C6)C4)C5)nn3)CC2)c1` [B3A095-01, N-(1-Adamantylmethyl)-6-[4-[[2-[2-(3-ethoxyphenyl)ethynyl]phenyl]methyl]piperazin-1-yl]-N-methylpyridazine-3-carboxamide]: under setting [1], the “ASMS ratio (%) n = 1” value is −4.9% and the “ASMS ratio (%) n = 2” value was −3.5%.

For `CCOc1cncc(-c2ccccc2CN2CCN(c3ccc(C(=O)N(C)CC45CC6CC(CC(C6)C4)C5)nn3)CC2)c1` [B3A072-01, N-(1-Adamantylmethyl)-6-[4-[[2-(5-ethoxypyridin-3-yl)phenyl]methyl]piperazin-1-yl]-N-methylpyridazine-3-carboxamide], under setting [1], the “ASMS ratio (%) n = 1” value stood at 11.6% and the “ASMS ratio (%) n = 2” value worked out at 3.1%.
